Reference: BindingDB's records for doi:10.1016/j.bmcl.2012.12.050 (Actelion Pharmaceuticals, 2013)
pIC50: −log10 of the molar value.

Experiment: Antagonist activity against CRTh2 receptor in human eosinophils assessed as cell shape change

pIC50: 6.80
SMILES: N#C/C(=C\c1cn(CC(=O)O)c2ccccc12)C(=O)N1CCCc2ccccc21
